Results published in patent US20150203474A1, “SOLID FORMS COMPRISING INHIBITORS OF HCV NS5A, COMPOSITIONS THEREOF, AND USES THEREWITH” (PRESIDIO PHARMACEUTICALS ,INC., priority 2012, published 2015).
Where two headings read alike, the source gives them in different places.

Tests used:
[1] = PK study of Form A of Compound I in rats; type: in vivo; details: male, Sprague-Dawley, rat, plasma, po, 75 mg/kg, single PO dose of 75 mg/kg, male SD rats
Protocol: The pharmacokinetics (PK) properties of Form A of Compound I and Form I of Compound II were determined in a series of comprehensive experiments in preclinical species including Sprague-Dawley rats, beagle dogs, cynomolgus monkeys. In those studies, the Form A crystalline salt of Compound I (and Form I crystalline salt of Compound II) was formulated in saline, 0.5% MC in saline or other commonly used suitable formulation vehicles to give a clear solution or as a suspension or a paste depending on the concentration intended to reach and the choice of vehicles. Dosing was by oral gavage. Blood samples were drawn and placed into individual tube containing K2EDTA. Blood samples were put on ice and centrifuged (2000 g for 5 minutes at 4° C.) to obtain plasma within 15 minutes after collection. Plasma samples were stored at approximately −80° C. freezer until analysis. For most of these analyses, Compound I (and Compound II) and the internal standard (IS) were extracted from rat, monkey or dog plasma by protein precipitation, and the extract was evaporated, reconstituted and analyzed using HPLC with tandem mass spectrometric detection (HPLC-MS/MS), see examples for further details. Calibration was accomplished by weighted linear regression of the ratio of the peak area of analyte to that of the added internal standard (IS). For the validated assay in rat and monkey EDTA plasma, the Lower Limit of Quantitation (LLOQ) for both compound 1 and 2 was 5.00 ng/mL, and the assay was linear from 5.00-1,000 ng/mL. PK parameters were calculated by non-compartmental analysis using WinNonlin (versions 4.1 through 6.1). 1) Weighed 922.80 mg of Form A of Compound I (equivalent to 824.603 mg of free base) into a clean tube. 2) Added 54.974 mL of 0.5% methylcellulose in saline into the tube containing the Form A of Compound I, vortexed for 3-5 min and sonicated for 10-15 min. The dosing solution was a light yellow and clear solution. Sprague Dawley rats, ˜7-9 weeks old and weighing ˜210-270 g, were given the above dosing solution at 5 mL/kg. […] Sample Preparation for Analysis: An aliquot of 30 μL of plasma sample was mixed with 30 μL of the IS (200 ng/mL), then mixed with 150 μL ACN for protein precipitation. The mixture was vortexed for 2 min and centrifuged at 12000 rpm for 5 min. An aliquot of 1 μL of supernatant was injected onto HPLC-MS/MS, if no further dilution was needed. To prepare a 10-fold diluted plasma samples, an aliquot of 10 μL plasma sample was mixed with 90 μL blank plasma to obtain the diluted plasma samples. The extraction procedure for diluted samples was as the same as that used for the non-diluted samples. • Compound Concentration Quantitation: • Instrument HPLC-MS/MS-12 (API4000), on positive ionization mode, ESI+ • HPLC Conditions Mobile Phase A: H2O—0.025% formic acid (FA)—1 mM NH4OAc • Mobile Phase B: MeOH—0.025% FA—1 mM NH4OAc Pharmacokinetic analysis was done using the WinNonlin software (Version 5.3, Pharsight Corporation, California, USA). Any concentration data under LLOQ (LLOQ=1.00 ng/mL in rat plasma and 3.00 ng/mL in rat liver homogenate) were replaced with “BQL”.

[2] = Stressing of Form A at ~40° C./~75% RH; type: physicochemical
Protocol: Form A samples were stressed at ˜40° C./˜75% relative humidity (RH) for 25-27 days. The samples were added to glass vials and then placed uncapped in jars containing saturated salt solutions. The jars were sealed and placed in an oven. […] XRPD patterns for this sample were collected with a PANalytical X'Pert PRO MPD diffractometer using an incident beam of Cu Kα radiation produced using a long, fine-focus source and a nickel filter. The diffractometer was configured using the symmetric Bragg-Brentano. Prior to the analysis, a silicon specimen (NIST SRM 640d) was analyzed to verify the Si 111 peak position. A specimen of the sample was packing into a nickel-coated copper well. Antiscatter slits (SS) were used to minimize the background generated by air. Soller slits for the incident and diffracted beams were used to minimize broadening from axial divergence. Diffraction patterns were collected using a scanning position-sensitive detector (X'Celerator) located 240 mm from the sample and Data Collector software v. 2.2b. […] TG′analysis was performed using a TA Instruments Q5000 IR and 2950 thermogravimetric analyzers. Temperature calibration was performed using nickel and Alumel™. Each sample was placed in an aluminum pan. Samples ran on TA Instruments 2950 were left uncapped and samples ran on Q5000 was hermetically sealed, the lid pierced, then inserted into the TG furnace. The furnace was heated under nitrogen. The sample was heated from 0° C. to 350° C., at 10° C./min.

[3] = Mean (N = 3), read-out: mean plasma concentration
[4] = Rat #1, read-out: plasma concentration
[5] = Rat #2, read-out: plasma concentration
[6] = Rat #3, read-out: plasma concentration

COC(=O)N[C@H](C(=O)N1CCC[C@H]1c1ncc(-c2ccc3cc(-c4ccc5nc([C@@H]6CCCN6C(=O)[C@@H](NC(=O)OC)C(C)C)[nH]c5c4)ccc3c2)[nH]1)C(C)C [Form A of Compound I] gave a concentration at 1 h [1, 3] of 5970 ng/mL, a concentration at 1 h [1, 4] of 6210 ng/mL and a concentration at 1 h [1, 5] of 5480 ng/mL. It also gave a concentration at 1 h [1, 6] of 6230 ng/mL, a concentration at 2 h [1, 3] of 7430 ng/mL and a concentration at 2 h [1, 4] of 8030 ng/mL. For the same compound, the concentration at 2 h [1, 5] was 7890 ng/mL, the concentration at 2 h [1, 6] was 6380 ng/mL and the concentration at 3 h [1, 3] was 8340 ng/mL. The concentration at 3 h [1, 4] was 5670 ng/mL, the concentration at 3 h [1, 5] was 8060 ng/mL and the concentration at 3 h [1, 6] was 11300 ng/mL. It also gave a concentration at 4 h [1, 3] of 3930 ng/mL, a concentration at 4 h [1, 4] of 3680 ng/mL and a concentration at 4 h [1, 5] of 5170 ng/mL. For the same compound, the concentration at 4 h [1, 6] was 2930 ng/mL, the concentration at 6 h [1, 3] was 2850 ng/mL and the concentration at 6 h [1, 4] was 2780 ng/mL. For the same compound, the concentration at 6 h [1, 5] was 3370 ng/mL, the concentration at 6 h [1, 6] was 2400 ng/mL and the concentration at 8 h [1, 3] was 531 ng/mL. For the same compound, the concentration at 8 h [1, 4] was 498 ng/mL, the concentration at 8 h [1, 5] was 704 ng/mL and the concentration at 8 h [1, 6] was 390 ng/mL. For the same compound, the concentration at 12 h [1, 3] was 176 ng/mL, the concentration at 12 h [1, 4] was 188 ng/mL and the concentration at 12 h [1, 5] was 277 ng/mL. For the same compound, the concentration at 12 h [1, 6] was 63.6 ng/mL, the concentration at 24 h [1, 3] was 8.07 ng/mL and the concentration at 24 h [1, 4] was 8.12 ng/mL. The concentration at 24 h [1, 5] was 7.95 ng/mL, the concentration at 24 h [1, 6] was 8.15 ng/mL and the “Hygroscopicity (in words)” value ([2]; stressed ~40° C./~75% RH 27 days vs unstressed material) was “hygroscopic at high RH”. For the same compound, the “Thermogravimetric weight loss after stressing” value ([2]; ~40° C./~75% RH, after 27 days, from 25-225° C., equivalent to 5 moles of water) was ~10% and the “Solid form by XRPD after stressing” value ([2]; ~40° C./~75% relative humidity, uncapped, after 25 days) was “remained Form A”.
